In ChEMBL document CHEMBL1201862, “PubChem BioAssay data set” (2004):
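Five compound concentrations were applied to cells in 96-well plates for 48 hours; endpoints were derived by simple linear interpolation of the resulting dose-response curve. At the GI50, growth is halved.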 Calls of active or inactive are those of the source. No stated cut-off is given here; in the data, active = GI50 up to about 1.1 µM and inactive = higher.

Key:
Assay in all cases: NCI-60 cell line screen, 48 h
Hs-578T = test system: Hs-578T
HCT-116 = test system: HCT-116
BT-549 = test system: BT-549
SK-OV-3 = test system: SK-OV-3
OVCAR-3 = test system: OVCAR-3
KM12 = test system: KM12
CAKI-1 = test system: CAKI-1
NCI-H460 = test system: NCI-H460
SF-268 = test system: SF-268
SK-MEL-5 = test system: SK-MEL-5
786-0 = test system: 786-0
IGROV-1 = test system: IGROV-1
A549 = test system: A549
OVCAR-8 = test system: OVCAR-8
OVCAR-4 = test system: OVCAR-4
LOX IMVI = test system: LOX IMVI
SW-620 = test system: SW-620
RPMI-8226 = test system: RPMI-8226
SR = test system: SR
Malme-3M = test system: Malme-3M

Measured: GI50

COc1ccc(NC(=O)C(=O)C(CC2C(=O)NC(=S)NC2=O)C(=O)c2ccc3ccccc3c2)c([N+](=O)[O-])c1 (stereo not drawn)
inactive: Hs-578T > 100 µM | HCT-116 > 100 µM | BT-549 > 100 µM | SK-OV-3 > 100 µM | OVCAR-3 > 100 µM | KM12 > 100 µM | CAKI-1 > 100 µM | NCI-H460 > 100 µM | SF-268 > 100 µM | SK-MEL-5 > 100 µM | 786-0 > 100 µM | IGROV-1 > 100 µM | A549 > 100 µM | OVCAR-8 > 100 µM | OVCAR-4 > 100 µM | LOX IMVI > 100 µM | SW-620 > 100 µM | RPMI-8226 76.9 µM

CCCCOC(=O)C(=O)C(CC(C(=O)Cc1ccccc1)c1ccccc1)C(=O)C=C(C)C (stereo not drawn)
inactive: Hs-578T > 100 µM | HCT-116 > 100 µM | BT-549 > 100 µM | SK-OV-3 > 100 µM | OVCAR-3 > 100 µM | KM12 > 100 µM | CAKI-1 > 100 µM | NCI-H460 > 100 µM | SF-268 > 100 µM | SK-MEL-5 > 100 µM | 786-0 > 100 µM | IGROV-1 > 100 µM | A549 > 100 µM | OVCAR-8 > 100 µM | OVCAR-4 > 100 µM | LOX IMVI > 100 µM | SW-620 > 100 µM

O=C1CCc2ccccc2O1 [DIHYDROCOUMARIN]
inactive: Hs-578T > 100 µM | HCT-116 > 100 µM | SK-OV-3 > 100 µM | OVCAR-3 > 100 µM | KM12 > 100 µM | CAKI-1 > 100 µM | NCI-H460 > 100 µM | SR > 100 µM | SF-268 > 100 µM | 786-0 > 100 µM | Malme-3M > 100 µM | IGROV-1 > 100 µM | OVCAR-8 > 100 µM | OVCAR-4 > 100 µM | LOX IMVI > 100 µM | SW-620 > 100 µM | RPMI-8226 > 100 µM

O=C(c1ccc(Cl)cc1Cl)N(C(=O)N1CCC(c2ccccc2)CC1)c1ccccc1
inactive: HCT-116 49.4 µM | BT-549 > 100 µM | SK-OV-3 > 100 µM | OVCAR-3 > 100 µM | KM12 > 100 µM | CAKI-1 > 100 µM | NCI-H460 > 100 µM | SR 24.3 µM | SK-MEL-5 37.3 µM | 786-0 > 100 µM | IGROV-1 92.9 µM | A549 > 100 µM | OVCAR-8 > 100 µM | LOX IMVI > 100 µM | SW-620 > 100 µM | RPMI-8226 47.9 µM

CC1(C)N=c2c(ncn2CCO)=C(C(N)=O)N1
inactive: Hs-578T > 100 µM | HCT-116 > 100 µM | SK-OV-3 > 100 µM | OVCAR-3 > 100 µM | KM12 > 100 µM | CAKI-1 > 100 µM | NCI-H460 > 100 µM | SR > 100 µM | SF-268 > 100 µM | SK-MEL-5 > 100 µM | 786-0 > 100 µM | Malme-3M > 100 µM | IGROV-1 > 100 µM | A549 > 100 µM | OVCAR-8 > 100 µM | OVCAR-4 > 100 µM | LOX IMVI > 100 µM | SW-620 > 100 µM | RPMI-8226 > 100 µM

Cc1ccc(/N=N/N(C)C(=O)C(C)N)cc1 (stereo not drawn)
inactive: HCT-116 > 100 µM | BT-549 > 100 µM | OVCAR-3 > 100 µM | KM12 > 100 µM | CAKI-1 > 100 µM | NCI-H460 > 100 µM | SR 26.9 µM | SF-268 > 100 µM | SK-MEL-5 > 100 µM | 786-0 > 100 µM | Malme-3M > 100 µM | IGROV-1 > 100 µM | OVCAR-8 > 100 µM | OVCAR-4 > 100 µM | LOX IMVI > 100 µM | SW-620 8.53 µM | RPMI-8226 16.1 µM

CCCN(CCC)C(=S)N/N=C/c1cccc(C)n1
active: HCT-116 < 0.01 µM | SK-OV-3 0.718 µM | OVCAR-3 < 0.01 µM | KM12 0.107 µM | CAKI-1 0.382 µM | NCI-H460 0.159 µM | SR 0.0571 µM | SF-268 0.023 µM | SK-MEL-5 0.129 µM | 786-0 0.0237 µM | Malme-3M 0.697 µM | IGROV-1 0.0733 µM | A549 0.108 µM | OVCAR-8 0.0217 µM | OVCAR-4 < 0.01 µM | LOX IMVI 0.141 µM | SW-620 0.054 µM | RPMI-8226 0.0239 µM
inactive: Hs-578T 2.16 µM

CCOC(=O)Cn1c(=O)c2nc(SC)sc2n(CC)c1=S
active: 786-0 0.173 µM
inactive: Hs-578T 22.1 µM | HCT-116 > 100 µM | SK-OV-3 > 100 µM | OVCAR-3 > 100 µM | KM12 > 100 µM | NCI-H460 > 100 µM | SR > 100 µM | SF-268 > 100 µM | SK-MEL-5 > 100 µM | Malme-3M > 100 µM | IGROV-1 94 µM | A549 > 100 µM | OVCAR-8 > 100 µM | OVCAR-4 59.8 µM | LOX IMVI > 100 µM | SW-620 > 100 µM | RPMI-8226 > 100 µM

Nc1ccc(-c2nc3ccccc3s2)cc1C(F)(F)F
inactive: Hs-578T 20 µM | HCT-116 13.4 µM | BT-549 13.2 µM | SK-OV-3 16.6 µM | OVCAR-3 16.4 µM | KM12 16.1 µM | CAKI-1 15.2 µM | SF-268 16 µM | SK-MEL-5 15.5 µM | 786-0 13.5 µM | Malme-3M 15.8 µM | A549 17.8 µM | OVCAR-8 18.6 µM | LOX IMVI 16.4 µM | SW-620 16.4 µM | RPMI-8226 16.5 µM

COc1ccccc1/C=C1/Sc2scc(CC(=O)Nc3ccccc3)[n+]2C1=O
inactive: Hs-578T 40.6 µM | HCT-116 24.6 µM | BT-549 15.3 µM | SK-OV-3 27.5 µM | OVCAR-3 16.9 µM | KM12 19.7 µM | CAKI-1 53 µM | NCI-H460 29.5 µM | SF-268 47.6 µM | SK-MEL-5 16 µM | 786-0 28.6 µM | IGROV-1 38 µM | A549 31.5 µM | OVCAR-8 31.8 µM | OVCAR-4 21 µM | LOX IMVI 39 µM | SW-620 35 µM

O=C(NCCCCCCNC(=O)c1cccc2ccccc12)Nc1cccc2ccccc12
inactive: Hs-578T > 100 µM | HCT-116 > 100 µM | BT-549 > 100 µM | OVCAR-3 > 100 µM | KM12 > 100 µM | CAKI-1 > 100 µM | NCI-H460 > 100 µM | SF-268 > 100 µM | SK-MEL-5 > 100 µM | 786-0 > 100 µM | Malme-3M > 100 µM | IGROV-1 > 100 µM | A549 > 100 µM | OVCAR-8 > 100 µM | OVCAR-4 > 100 µM | LOX IMVI > 100 µM | SW-620 > 100 µM | RPMI-8226 > 100 µM

N=C(N)N/N=C\c1c(-c2ccccc2)nc2sccn12
inactive: Hs-578T 14 µM | HCT-116 15.2 µM | SK-OV-3 19 µM | KM12 14.2 µM | CAKI-1 16 µM | NCI-H460 16.2 µM | SR 22.4 µM | SF-268 16.4 µM | SK-MEL-5 15.6 µM | 786-0 14.1 µM | Malme-3M 16.3 µM | IGROV-1 13.6 µM | A549 17.5 µM | OVCAR-8 16.5 µM | OVCAR-4 15.8 µM | LOX IMVI 16.3 µM | SW-620 12.9 µM | RPMI-8226 20 µM

CCOP(=O)(OCC)C1(O)CC(n2cc(C)c(=O)[nH]c2=O)OC1CO (stereo not drawn)
inactive: Hs-578T > 100 µM | HCT-116 > 100 µM | SK-OV-3 > 100 µM | OVCAR-3 > 100 µM | KM12 > 100 µM | CAKI-1 > 100 µM | NCI-H460 > 100 µM | SR > 100 µM | SF-268 > 100 µM | SK-MEL-5 > 100 µM | 786-0 > 100 µM | Malme-3M > 100 µM | IGROV-1 > 100 µM | A549 > 100 µM | OVCAR-8 > 100 µM | OVCAR-4 > 100 µM | LOX IMVI > 100 µM | SW-620 > 100 µM | RPMI-8226 > 100 µM

C/C=C/OC1C(C2COC(C)(C)O2)OC2OC(C)(C)OC21 (stereo not drawn)
inactive: Hs-578T > 100 µM | HCT-116 > 100 µM | SK-OV-3 > 100 µM | OVCAR-3 > 100 µM | CAKI-1 > 100 µM | NCI-H460 > 100 µM | SR > 100 µM | SF-268 > 100 µM | SK-MEL-5 > 100 µM | 786-0 > 100 µM | Malme-3M > 100 µM | IGROV-1 > 100 µM | A549 > 100 µM | OVCAR-8 > 100 µM | OVCAR-4 > 100 µM | LOX IMVI > 100 µM | SW-620 > 100 µM | RPMI-8226 > 100 µM

CCOC(=O)/C=C(/C(=O)OCC)n1cc(C)c(=O)n(Cc2cn(CCCCOC(C)=O)nn2)c1=O
inactive: Hs-578T 23.2 µM | HCT-116 22.7 µM | SK-OV-3 > 100 µM | OVCAR-3 14.7 µM | KM12 15.5 µM | CAKI-1 2.84 µM | NCI-H460 10.7 µM | SR 4.27 µM | SF-268 17.1 µM | SK-MEL-5 25.6 µM | 786-0 6.49 µM | IGROV-1 15.2 µM | A549 27 µM | OVCAR-8 12.9 µM | OVCAR-4 19.7 µM | LOX IMVI 17.7 µM | SW-620 3.03 µM | RPMI-8226 5.13 µM

CC1CC(C)C(O)C(C2CC(CC(=O)NC3CCCCC3)CC(=O)O2)C1 (stereo not drawn)
inactive: Hs-578T > 100 µM | HCT-116 > 100 µM | OVCAR-3 > 100 µM | KM12 > 100 µM | CAKI-1 > 100 µM | NCI-H460 > 100 µM | SR > 100 µM | SF-268 > 100 µM | SK-MEL-5 > 100 µM | 786-0 > 100 µM | Malme-3M > 100 µM | IGROV-1 > 100 µM | A549 > 100 µM | OVCAR-8 > 100 µM | OVCAR-4 > 100 µM | LOX IMVI > 100 µM | SW-620 > 100 µM | RPMI-8226 > 100 µM
